# Where two headings read alike, the source gives them in different places.
# How the values were obtained:
# [1] = biological target: T1, calmodulin (Bos taurus, UniProt P62157); design: method as in Molnar et al (1995); conditions: ref Molnar et al (1995); cited from earlier work
# T1 construct: Calmodulin from bovine brain was purified to homogeneity using Phenyl-Sepharose (Pharmacia) chromatography; from tissue; host or cells: bovine brain
# [2] = test system: Human neuroblastoma cell line (SH-SY5Y); assay: Microculture tetrazolium assay (MTA), cytotoxicity; conditions: Homo sapiens, 96 h
# Excerpt: (§1) The numerous antimitotic drugs already developed and therapeu- tically used for a large number of pathologies belong to different classes based on their chemical structure and other distinctive features. Antimitotic drugs usually target the tubulin/microtubule network of the cytoskeleton that is formed by assembly of cyto- plasmic tubulin dimers. The stability of the different microtubular structures varies considerably; some of their functions depend on their lability. The lability is augmented by the extreme sensitivity to various drugs. Several synthetic and natural compounds interact specifically with tubulin and/or microtubule, fundamentally destroying its dynamic character and leading to cell death. […] Because of their extensive clinical use, it is important to synthesize additional agents having at least the same biological activity. […] Nevertheless, it is unclear yet how the anti-calmodulin activity of these drugs is related to their desired and undesired pharmacological effects. […] The synthesis of the KAR derivatives are presented. […] Taxol, GTP and trifluoperazine were purchased from Sigma. All organic reagents for synthesis of the new compounds were obtained from Aldrich and were of the highest grade. All other chemicals were reagent grade commercial preparations. […] Tubulin was stored in 1 M sucrose, 10 mM sodium phosphate buffer, 0.5 mM magnesium chloride and 0.1 mM GTP, pH 7.0, at -80C and dialysed against the appropriate buffer before use. […] PFK, aldolase and glycerol-3-phosphate dehydrogenase- triosephosphate isomerase purified from rabbit skeletal muscle were purchased in ammonium sulphate suspensions from Sigma or Boehringer. The enzyme suspensions were centrifuged at 10 000g for 5 min. The pellets were suspended in the appropriate buffer, then the enzymes were gel filtered or dialysed in the same buffer to remove ammonium sulphate. […] (Figure 1B; R1 , CH3; R2 , CH2 CH2 Cl). […] After 2 h incubation at room temperature, 200 ml dried toluene was added to the reaction mixture. […] The mixture was stirred for 30 min. After separation of the organic phase, it was washed with water (3 x 30 ml) and dried with potassium sulphate and evaporated on a water bath of 35-40C at 20-27 hPa. The resulting material was chromatographed on silica gel (500 g, bead size of 0.040- 0.063 mm) column (30 mm x 500 mm) using ethyl acetate/ethanol (9:1) mixture as eluent. […] The mixture was kept for 4 h at room temperature and then evaporated on a water bath at 40C under a vacuum of 80 hPa to a final volume of 5-6 ml. […] (Figure 1B, R1 , CHO; R2 , CH2 CH2 Cl). […] Synthesis of KAR-4 [3-allyl-2,4-dioxo-3,5-spiro-oxazolidino- 4-deacetoxy-vinblastine] (Figure 1B; R1 , CH3; R2 , CH2 CH=CH2 ). […] NMR measurements were carried out on a Varian Unity plus-500 instrument (500 MHz for 1H and 125 MHz for 13C) in DMSO. Chemical shifts were determined relative to dTMS = 0.00 p.p.m. 1H and 13C signal assignments were verified by a concerted use of two-dimensional 1H-1H and 1H-13C shift correlation methods (DQFCOSY, HSQC, HMBC) and NOESY experiments. The gradient-enhanced DQFCOSY, HSQC, HMBC and NOESY experiments were recorded by using the standard spectrometer software package. A mixing time of tmix = 0.5 s was used for the NOESY experiments.
# [3] = test system: tubulin/microtubule, PFK-bundled microtubules; assay: Tubulin polymerization with or without PFK (bundled vs single microtubules): turbidity and pelleting with SDS-PAGE; assay type: biochemical, calf; conditions: 10 M tubulin, 2 M drug, 20 µM taxol, SDS-PAGE of supernatant and pellet
# Excerpt: The numerous antimitotic drugs already developed and therapeu- tically used for a large number of pathologies belong to different classes based on their chemical structure and other distinctive features. Antimitotic drugs usually target the tubulin/microtubule network of the cytoskeleton that is formed by assembly of cyto- plasmic tubulin dimers. The stability of the different microtubular structures varies considerably; some of their functions depend on their lability. The lability is augmented by the extreme sensitivity to various drugs. Several synthetic and natural compounds interact specifically with tubulin and/or microtubule, fundamentally destroying its dynamic character and leading to cell death. […] Because of their extensive clinical use, it is important to synthesize additional agents having at least the same biological activity. […] Nevertheless, it is unclear yet how the anti-calmodulin activity of these drugs is related to their desired and undesired pharmacological effects. […] The synthesis of the KAR derivatives are presented. […] Taxol, GTP and trifluoperazine were purchased from Sigma. All organic reagents for synthesis of the new compounds were obtained from Aldrich and were of the highest grade. All other chemicals were reagent grade commercial preparations. […] Tubulin was stored in 1 M sucrose, 10 mM sodium phosphate buffer, 0.5 mM magnesium chloride and 0.1 mM GTP, pH 7.0, at -80C and dialysed against the appropriate buffer before use. […] PFK, aldolase and glycerol-3-phosphate dehydrogenase- triosephosphate isomerase purified from rabbit skeletal muscle were purchased in ammonium sulphate suspensions from Sigma or Boehringer. The enzyme suspensions were centrifuged at 10 000g for 5 min. The pellets were suspended in the appropriate buffer, then the enzymes were gel filtered or dialysed in the same buffer to remove ammonium sulphate. […] (Figure 1B; R1 , CH3; R2 , CH2 CH2 Cl). […] After 2 h incubation at room temperature, 200 ml dried toluene was added to the reaction mixture. […] The mixture was stirred for 30 min. After separation of the organic phase, it was washed with water (3 x 30 ml) and dried with potassium sulphate and evaporated on a water bath of 35-40C at 20-27 hPa. The resulting material was chromatographed on silica gel (500 g, bead size of 0.040- 0.063 mm) column (30 mm x 500 mm) using ethyl acetate/ethanol (9:1) mixture as eluent. […] The mixture was kept for 4 h at room temperature and then evaporated on a water bath at 40C under a vacuum of 80 hPa to a final volume of 5-6 ml. […] (Figure 1B, R1 , CHO; R2 , CH2 CH2 Cl). […] Synthesis of KAR-4 [3-allyl-2,4-dioxo-3,5-spiro-oxazolidino- 4-deacetoxy-vinblastine] (Figure 1B; R1 , CH3; R2 , CH2 CH=CH2 ). […] NMR measurements were carried out on a Varian Unity plus-500 instrument (500 MHz for 1H and 125 MHz for 13C) in DMSO. Chemical shifts were determined relative to dTMS = 0.00 p.p.m. 1H and 13C signal assignments were verified by a concerted use of two-dimensional 1H-1H and 1H-13C shift correlation methods (DQFCOSY, HSQC, HMBC) and NOESY experiments. The gradient-enhanced DQFCOSY, HSQC, HMBC and NOESY experiments were recorded by using the standard spectrometer software package. A mixing time of tmix = 0.5 s was used for the NOESY experiments. […] Mass spectrum was recorded on a Kratos MS 80 instrument using FAB.
# [4] = test system: tubulin; assay: Taxol-induced tubulin polymerization, turbidity at 350 nm; assay type: biochemical, calf; conditions: taxol-induced assembly, MES buffer pH 6.8, 37C; average of three independent measurements; read-out: Anti-tubulin effect, turbidity at 350 nm, IC50
# Excerpt: as §1
# [5] = test system: mouse leukaemia P388; design: method as in Orosz et al, 1997a; conditions: P388, 0.2 mg kg-1, eightfold treatment; ref Orosz et al, 1997a; cited from earlier work
compound,measurement,setting,value
"CC[C@]1(O)C[C@@H]2CN(CCc3c([nH]c4ccccc34)[C@@](C(=O)OC)(c3cc4c(cc3OC)N(C)[C@H]3[C@@](O)(C(=O)OC)[C@H](OC(C)=O)[C@]5(CC)C=CCN6CC[C@]43[C@@H]65)C2)C1 [Vinblastine, vinblastine, reference compound]",Anti-calmodulin activity: Efficiency (%),[1],61%
same,IC50,[2]; read-out: Cytotoxicity MTA IC50,5e-09 M
same,IC50,[2]; read-out: Cytotoxicity MTA IC50 (M),5e-09 M
same,"tubulin partition in pelleting experiment, without PFK",[3]; no PFK,practically all tubulin appears in the super- natants
same,"tubulin partition in pelleting experiment, with PFK (bundled microtubules)",[3]; 2 M PFK,significant amount of tubulins were assembled into microtubules
same,T/C,[5],199%
